Reference: paper PMC10291551, “Characterization of a Potent and Orally Bioavailable Lys-Covalent Inhibitor of Apoptosis Protein (IAP) Antagonist” (Journal of Medicinal Chemistry, 2023)
Converted amounts (≈) assume the structure as drawn. Blank lines part the entries; values can stand above or below the molecule they belong to.

Columns and labels:
cIAP1-BIR3 = biological target: T1, cIAP1-BIR3 (Homo sapiens, UniProt Q13490); assay: DELFIA displacement assay (biotinylated AVPI peptide); assay type: binding
T1 construct: from the BIR3 domains of XIAP, cIAP1, and cIAP2

[1] = Solubility in dosing formulation; assay type: physicochemical; conditions: dosing formulation of 80% PBS, 10% ethanol, 10% Tween80, aqueous with cosolvent or surfactant or cyclodextrin
[2] = pH = 7.5, T = 25 °C; cited from earlier work
in vivo = conditions: Balb/c, mouse, plasma, 30 mg/kg
[3] = parameters: method as in PMID 31550155; conditions: cited from earlier work

IC50 (cIAP1-BIR3; after 6 h preincubation (bottom values)): 19.3 nM | IC50 (cIAP1-BIR3; without preincubation (top values)): 16.6 ± 1.7 nM
SMILES: CN[C@@H](C)C(=O)N[C@H](C(=O)N1CCC[C@H]1C(=O)N[C@@H]1CCc2c(O)cccc21)C1CCCCC1 [compound 1, (S)-1-((S)-2-cyclohexyl-2-((S)-2-(methylamino)propanamido)acetyl)-N-((R)-4-hydroxy-2,3-dihydro-1H-inden-1-yl)pyrrolidine-2-carboxamide]

SMILES: CN[C@@H](C)C(=O)N[C@H](C(=O)N1CCC[C@H]1C(=O)N[C@@H]1CCc2c(OS(=O)(=O)F)cccc21)C1CCCCC1 [142D6, (R)-1-((S)-1-((S)-2-cyclohexyl-2-((S)-2-(methylamino)propanamido)acetyl)pyrrolidine-2-carboxamido)-2,3-dihydro-1H-inden-4-yl sulfurofluoridate]
solubility [1]: 7500 µg/mL (≈ 13.6 mM) | solubility in aqueous buffer [2]: up to 2 mM | bioavailability at 24 h (in vivo; ip): 35% | bioavailability at 24 h (in vivo; po): 36%

SMILES: CN[C@@H](C)C(=O)N[C@H](C(=O)N1CCC[C@H]1c1nc(C(=O)c2ccc(F)cc2)cs1)C1CCCCC1 [LCL161]
plasma stability t1/2 [3]: > 2 h
